Laboratory results taken from the supplement of paper PMC8633005.

How the values were obtained:
Assay in all cases: drug sensitivity score (DSS) (DSS (unitless, 0-50 scale)); higher = more sensitive (stronger viability inhibition); extreme values may be limits of the assay
Conditions in all cases: 72 h; culture: 2D
WM165 = tested on: WM165
Procedure, shortened: (§1)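 Patient-derived melanoma cultures and melanoma cell lines were grown in 2D in 384-well plates with a 527-compound oncology library at five concentrations spanning a 10,000-fold range, with 1000–1500 cells per well for the cultures. CellTiter-Glo luminescence gave viability after 72 h at 37 °C. The drug sensitivity score is a modified area-under-curve measure derived from dose-response curves fitted in the in-house Breeze software.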

SK-MEL-28 = tested on: SK-MEL-28
Procedure, shortened: as §1

FM-MEL-6 = tested on: FM-MEL-6
Procedure, shortened: as §1

FM-MEL-3 = tested on: FM-MEL-3
Procedure, shortened: as §1

SK-MEL-2 = tested on: SK-MEL-2
Procedure, shortened: as §1

WM852 = tested on: WM852
Procedure, shortened: as §1

FM-MEL-2 = tested on: FM-MEL-2
Procedure, shortened: as §1

Bowes = tested on: Bowes
Procedure, shortened: as §1

| SMILES | drug sensitivity score (WM165) | drug sensitivity score (SK-MEL-28) | drug sensitivity score (FM-MEL-6) | drug sensitivity score (FM-MEL-3) | drug sensitivity score (SK-MEL-2) | drug sensitivity score (WM852) | drug sensitivity score (FM-MEL-2) | drug sensitivity score (Bowes) |
| --- | --- | --- | --- | --- | --- | --- | --- | --- |
| Cc1cc(Nc2cc(CN3CCOCC3)c3nc(C)c(Cc4ccc(Cl)cc4F)n3n2)n[nH]1 [Gandotinib] | 5.9 | 3.6 | 2.2 | 6.9 | 0 | 4 | 3 | 4.8 |
| CCc1c(C(=O)C(N)=O)c2c(OCC(=O)O)cccc2n1Cc1ccccc1 [Varespladib] | 0 | 0 | 0 | 0 | 0 | 0 | 0 | 0 |
| Cc1nc(=O)c2cc(CN(C)c3ccc(C(=O)N[C@@H](CCC(=O)O)C(=O)O)s3)ccc2[nH]1 [Raltitrexed] | 8.4 | 3.9 | 0 | 0 | 0 | 0 | 0 | 23.9 |
| CN1CC[C@@H](NC(=O)Nc2ccc(C#N)cc2)C[C@@H]1c1nc2ccccc2[nH]1 [Glasdegib] | 0 | 0 | 0 | 0 | 0 | 0 | 0 | 0 |
| CC(=O)Nc1ccc(C(=O)Nc2ccccc2N)cc1 [Tacedinaline] | 0 | 0 | 1.7 | 2.7 | 0 | 1.5 | 1.6 | 0 |
| C#Cc1cccc(Nc2ncnc3cc4c(cc23)OCCOCCOCCO4)c1 [Icotinib] | 0 | 0.1 | 0.9 | 0.1 | 0 | 0.1 | 0.4 | 0 |
| Cc1c(F)cc(C(=O)NC2CC2)cc1-c1ccc(C(=O)NCC(C)(C)C)cn1 [Losmapimod] | 0 | 0 | 0 | 0.7 | 0 | 0 | 1.6 | 2.8 |
| Nc1nc(F)nc2c1ncn2[C@@H]1O[C@H](CO)[C@@H](O)[C@@H]1O [Fludarabine] | 0 | 1.1 | 3.1 | 0.6 | 4.7 | 0 | 1.4 | 0 |
| NCCNc1ccc(NCCN)c2c1C(=O)c1ccncc1C2=O [Pixantrone] | 0.7 | 0 | 0.8 | 0 | 0 | 1.3 | 0 | 4.8 |
| C=CCc1cccc(/C=N/NC(=O)CN2CCN(Cc3ccccc3)CC2)c1O [PAC-1] | 3.4 | 1.5 | 0 | 0 | 0 | 2.8 | 0 | 1.6 |
| COc1cc2ncnc(Nc3ccc(F)c(Cl)c3)c2cc1NC(=O)/C=C/CN1CCCCC1 [Dacomitinib] | 0 | 0 | 0.4 | 1 | 0 | 0.3 | 0.4 | 4.1 |
| N[C@@H]1CCCN(c2c(/C=C3\SC(=O)NC3=O)cccc2-c2ccccc2)C1 [AZD1208] | 0 | 0.4 | 0.8 | 2 | 0 | 0 | 2.8 | 0 |
| Cc1cc2c(F)c(Oc3ncnn4cc(OC[C@@H](C)O)c(C)c34)ccc2[nH]1 [Brivanib] | 0 | 0 | 0 | 0 | 0 | 0 | 0 | 0 |
| COc1cc(NS(C)(=O)=O)ccc1Nc1c2ccccc2nc2ccccc12 [Amsacrine] | 16.9 | 6.4 | 5.5 | 5.8 | 2.8 | 0 | 4.9 | 0.5 |
| CC1(C)CCC(CN2CCN(c3ccc(C(=O)NS(=O)(=O)c4ccc(NCC5CCOCC5)c([N+](=O)[O-])c4)c(Oc4cnc5[nH]ccc5c4)c3)CC2)=C(c2ccc(Cl)cc2)C1 [Venetoclax] | 0 | 0 | 0 | 3.6 | 0 | 0 | 0 | 0 |
| Nc1nc(NC2CC2)cc(-c2cccc(Cl)c2Cl)n1 [TH588] | 0.9 | 0 | 0 | 2.2 | 0 | 4.3 | 0 | 0 |
| O=c1[nH]c(=O)n([C@H]2C[C@H](O)[C@@H](CO)O2)cc1C(F)(F)F [Trifluridine] | 3.5 | 2.7 | 0.8 | 0.1 | 0 | 0 | 0 | 0 |
| CC[C@H](CC#N)OC(=O)N[C@@H](C)c1cccc(NC(=O)Nc2ccc(-c3cnco3)c(OC)c2)c1 [AVN944] | 18.9 | 13.3 | 12.8 | 10.5 | 4.8 | 8.4 | 8.1 | 10.4 |

| SMILES | drug sensitivity score (WM165) | drug sensitivity score (SK-MEL-28) | drug sensitivity score (FM-MEL-6) | drug sensitivity score (FM-MEL-3) | drug sensitivity score (SK-MEL-2) | drug sensitivity score (WM852) | drug sensitivity score (FM-MEL-2) | drug sensitivity score (Bowes) |
| --- | --- | --- | --- | --- | --- | --- | --- | --- |
| O=C(CCNC(=O)c1ccc(OC(F)(F)F)cc1)N[C@@H]1CCCc2ccccc21 [ML390] | 6.8 | 2.8 | 1.2 | 6.7 | 0 | 0 | 0 | 0 |
| COc1cc([C@@H]2c3cc4c(cc3[C@@H](O[C@@H]3O[C@@H]5CO[C@@H](c6cccs6)O[C@H]5[C@H](O)[C@H]3O)[C@H]3COC(=O)[C@H]23)OCO4)cc(OC)c1O [Teniposide] | 0 | 0 | 0 | 0 | 0 | 0 | 0 | 0 |
| CC(=O)O[C@@]12CO[C@@H]1C[C@H](O)[C@@]1(C)C(=O)[C@H](O)C3=C(C)[C@@H](OC(=O)[C@H](O)[C@@H](NC(=O)OC(C)(C)C)c4ccccc4)C[C@@](O)([C@@H](OC(=O)c4ccccc4)[C@H]21)C3(C)C [Docetaxel] | 25.1 | 12.7 | 14.7 | 10.9 | 16.4 | 20.7 | 6.5 | 28.8 |
| CNC(=O)c1cc(Oc2ccc(NC(=O)Nc3ccc(Cl)c(C(F)(F)F)c3)c(F)c2)ccn1 [Regorafenib] | 5.3 | 4.6 | 3.7 | 12.9 | 2.8 | 1.8 | 8.5 | 6.7 |
| C[C@@H]1COC(Nc2ccc3ncnc(Nc4ccc(OCc5nccs5)c(Cl)c4)c3c2)=N1 [Varlitinib] | 0 | 0.3 | 0 | 2.2 | 0 | 1.7 | 5.7 | 0 |
| Nc1ccccc1NC(=O)c1ccc(CNc2nccc(-c3cccnc3)n2)cc1 [Mocetinostat] | 11.9 | 9.9 | 11.4 | 8.4 | 9.4 | 1.7 | 6.7 | 6.4 |
| CCn1c(C(=O)N(C2CC2)C2CC2)cc2c3c(ncn3C)c(Nc3cc(C)n(C)n3)nc21 | 0 | 0.4 | 0.8 | 0 | 0 | 0 | 2.3 | 0 |
| Cc1ccc(NC(=O)c2ccc(CN3CCN(C)CC3)cc2)cc1Nc1nc(-c2cccnc2)cs1 [Masitinib] | 3.3 | 3.5 | 4.4 | 4.3 | 2.1 | 5.7 | 6.4 | 2.3 |
| CCN1CCN(c2ccc(Nc3cc(N(C)C(=O)Nc4c(Cl)c(OC)cc(OC)c4Cl)ncn3)cc2)CC1 [Infigratinib] | 0 | 0 | 0 | 0 | 0 | 0 | 0 | 0 |
| CN1CCN(C2CCC(n3cc(-c4ccc(Oc5ccccc5)cc4)c4c(N)ncnc43)CC2)CC1 (stereo not given) | 9.4 | 8 | 7.2 | 7.7 | 5 | 9.2 | 6.6 | 10.1 |
| O[C@H](C[C@H]1c2c(F)cccc2-c2cncn21)[C@H]1CC[C@H](O)CC1 [GDC-0919] | 0 | 0.5 | 1.1 | 0.7 | 0 | 1.2 | 0.4 | 0.3 |
| CC[C@@]1(O)C(=O)OCc2c1cc1n(c2=O)Cc2cc3c(CN(C)C)c(O)ccc3nc2-1 [Topotecan] | 25.3 | 8.1 | 8.1 | 11 | 8.2 | 1.4 | 6.1 | 6.8 |
| Cc1nc(C(=O)NCC(=O)O)c(O)c2ccc(Oc3ccccc3)cc12 [Roxadustat] | 0 | 0 | 0 | 0 | 0 | 2.1 | 0 | 0 |
| CCc1cnn2c(NCc3ccc[n+]([O-])c3)cc(N3CCCC[C@H]3CCO)nc12 [Dinaciclib] | 22.4 | 20.2 | 21.7 | 18.5 | 21.2 | 20 | 13.1 | 30.7 |
| CCNCCS(=O)(=O)NC[C@@]1(c2ccccc2)SC(NC(=O)C(C)(C)C)=NN1C(=O)C(C)(C)C [Litronesib] | 18.9 | 2.2 | 10.2 | 8.6 | 13.1 | 23.7 | 2.4 | 18.8 |
| NC(=O)c1cccc(-c2cccc(OC(=O)NC3CCCCC3)c2)c1 [URB597] | 0 | 0 | 0 | 0 | 0 | 0 | 0 | 0 |
| Cc1nc(Nc2ncc(C(=O)Nc3c(C)cccc3Cl)s2)cc(N2CCN(CCO)CC2)n1 [Dasatinib] | 5.3 | 3.4 | 0 | 0 | 0 | 0.1 | 0 | 1.9 |
